According to patent publication US20230136702A1, “Inhibitors of Human Herpesviruses” (The Governors of the University of Alberta, priority 2020, published 2023):
Where two headings read alike, the source gives them in different places.

Key:
[1] = biological target: T1, HCMV DNA polymerase (UL54) (Human cytomegalovirus, UniProt P08546); experiment: HCMV DNA polymerase enzyme inhibition assay (ProFoldin, fluorescence); format: biochemical; settings: 37° C., duplicate, max 40 μM
T1 construct: 6His (C); made in house; host or cells: Sf9 insect cells (baculovirus, pFastBac)
T1 sequence (P08546 whole entry): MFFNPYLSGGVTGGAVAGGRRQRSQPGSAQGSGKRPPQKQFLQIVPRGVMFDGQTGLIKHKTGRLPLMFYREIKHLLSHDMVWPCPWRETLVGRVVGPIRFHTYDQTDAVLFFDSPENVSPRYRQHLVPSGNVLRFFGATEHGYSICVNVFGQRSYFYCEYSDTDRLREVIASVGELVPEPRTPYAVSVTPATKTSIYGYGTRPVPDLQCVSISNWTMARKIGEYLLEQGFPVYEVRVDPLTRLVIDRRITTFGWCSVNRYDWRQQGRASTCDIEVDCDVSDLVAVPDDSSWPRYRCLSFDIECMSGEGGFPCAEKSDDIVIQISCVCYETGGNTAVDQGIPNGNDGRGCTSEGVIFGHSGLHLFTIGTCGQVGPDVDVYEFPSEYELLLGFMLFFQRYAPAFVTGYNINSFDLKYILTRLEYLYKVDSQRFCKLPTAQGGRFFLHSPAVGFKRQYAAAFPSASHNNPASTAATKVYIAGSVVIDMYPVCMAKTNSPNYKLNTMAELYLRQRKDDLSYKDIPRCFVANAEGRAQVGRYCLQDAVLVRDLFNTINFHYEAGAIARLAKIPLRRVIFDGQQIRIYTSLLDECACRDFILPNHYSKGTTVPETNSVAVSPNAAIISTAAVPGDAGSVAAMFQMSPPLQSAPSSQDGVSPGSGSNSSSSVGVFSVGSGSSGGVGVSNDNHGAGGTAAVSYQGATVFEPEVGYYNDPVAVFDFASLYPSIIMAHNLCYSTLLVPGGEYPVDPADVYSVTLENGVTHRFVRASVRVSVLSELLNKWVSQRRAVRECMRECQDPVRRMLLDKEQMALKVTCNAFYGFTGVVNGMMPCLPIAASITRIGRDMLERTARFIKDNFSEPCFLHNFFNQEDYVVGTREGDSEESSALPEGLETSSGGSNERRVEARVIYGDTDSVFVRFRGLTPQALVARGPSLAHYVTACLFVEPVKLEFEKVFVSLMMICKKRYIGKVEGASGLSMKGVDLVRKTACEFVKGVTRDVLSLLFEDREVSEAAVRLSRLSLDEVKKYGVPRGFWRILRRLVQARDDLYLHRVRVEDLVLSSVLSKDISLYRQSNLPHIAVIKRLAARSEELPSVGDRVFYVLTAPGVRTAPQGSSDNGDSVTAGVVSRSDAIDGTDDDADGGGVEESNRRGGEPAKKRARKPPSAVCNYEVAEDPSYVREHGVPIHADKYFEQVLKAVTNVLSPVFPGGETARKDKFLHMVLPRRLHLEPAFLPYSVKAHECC

[2] = test system: HCMV US3-6-EGFP-HCMV-AD169 strain; experiment: In vitro inhibitory (antiviral) activity against HCMV, GFP reporter in MRC5 cells; format: cell-based, Human cytomegalovirus (HCMV); settings: Human betaherpesvirus 5, AD169, MRC5, 96 h, read-out: HCMV Antiviral EC50 range
Method in brief: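 MRC5 cells were infected with GFP-reporter virus (MOI=0.1) alongside compounds (8 points, 3-fold dilutions, duplicate; top 40 μM test compounds, 100 μM ganciclovir; 0.5% DMSO final) for 4 days at 37 °C. GFP fluorescence inhibition, normalized to virus and cell controls, gave EC50; viability gave CC50.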

[3] = Cytotoxicity in MRC5 cells without virus infection (CCK8); format: cell-based; settings: human
hERG potassium channel = biological target: T2, hERG potassium channel (Homo sapiens, UniProt Q12809); experiment: Inhibition of hERG potassium channel, automated patch clamp (SyncroPatch 384PE) in CHO cells; format: cell-based
T2 construct: host or cells: CHO cells stably expressing hERG
T2 sequence (Q12809 whole entry): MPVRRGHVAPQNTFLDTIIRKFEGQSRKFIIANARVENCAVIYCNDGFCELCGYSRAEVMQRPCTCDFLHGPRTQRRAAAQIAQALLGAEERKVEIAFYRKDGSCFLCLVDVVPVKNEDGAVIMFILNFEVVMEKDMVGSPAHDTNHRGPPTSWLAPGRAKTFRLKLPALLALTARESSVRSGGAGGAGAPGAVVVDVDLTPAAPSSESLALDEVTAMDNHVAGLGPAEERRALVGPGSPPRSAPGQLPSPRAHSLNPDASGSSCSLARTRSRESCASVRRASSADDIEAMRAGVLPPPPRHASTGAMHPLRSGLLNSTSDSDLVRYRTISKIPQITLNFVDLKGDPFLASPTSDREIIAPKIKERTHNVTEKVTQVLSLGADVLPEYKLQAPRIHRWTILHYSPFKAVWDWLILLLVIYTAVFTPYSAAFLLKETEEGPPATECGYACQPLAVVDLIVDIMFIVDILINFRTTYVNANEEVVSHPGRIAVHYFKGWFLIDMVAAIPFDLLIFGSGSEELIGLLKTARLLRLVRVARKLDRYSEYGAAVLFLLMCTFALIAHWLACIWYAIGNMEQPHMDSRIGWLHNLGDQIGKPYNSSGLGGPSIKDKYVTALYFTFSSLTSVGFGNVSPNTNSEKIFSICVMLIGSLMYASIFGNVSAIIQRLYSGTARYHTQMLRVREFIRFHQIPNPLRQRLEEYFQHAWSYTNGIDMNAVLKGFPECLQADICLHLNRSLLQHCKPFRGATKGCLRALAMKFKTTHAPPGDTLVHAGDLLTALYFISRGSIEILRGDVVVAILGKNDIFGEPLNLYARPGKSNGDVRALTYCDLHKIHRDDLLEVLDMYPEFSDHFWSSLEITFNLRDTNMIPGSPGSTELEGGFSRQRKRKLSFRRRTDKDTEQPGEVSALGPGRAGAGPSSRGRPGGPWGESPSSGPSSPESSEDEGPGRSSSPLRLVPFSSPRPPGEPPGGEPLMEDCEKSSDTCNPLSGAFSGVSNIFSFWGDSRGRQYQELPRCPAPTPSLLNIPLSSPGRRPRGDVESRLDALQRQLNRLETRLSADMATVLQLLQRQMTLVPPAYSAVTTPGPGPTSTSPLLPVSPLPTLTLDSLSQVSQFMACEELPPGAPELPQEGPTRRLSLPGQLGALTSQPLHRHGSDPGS

[4] = CHO cells stably expressing hERG, room temperature, 0.494-40.00 μM, read-out: CHO-hERG Activity Range

CC(C)(C(=O)O)N1CCN(c2cnc3c(cc(C(=O)NCc4ccc(Cl)cc4)c(=O)n3CC(=O)N3CC4(CC4)C3)n2)C1=O [Compound 44, 2-[3-(5-[2-(5-azaspiro[2.3]hexan-5-yl)-2-oxoethyl]-7-{[(4-chlorophenyl)methyl]carbamoyl}-6-oxo-5,6-dihydropyrido[2,3-b]pyrazin-2-yl)-2-oxoimidazolidin-1-yl]-2-methylpropanoic acid] showed an IC50 [1] of under 1 µM, an EC50 [2] of under 1 µM and a CC50 at 4 days [3] of over 40 µM. It also gave an IC50 (hERG potassium channel) of over 10 µM.

For CC1(F)CN(C(=O)Cn2c(=O)c(C(=O)NCc3ccc(Cl)cc3)cc3nc(N4CCN(CCN)C4=O)cnc32)C1 [Compound 6], the IC50 [1] was under 1 µM, the EC50 [2] was under 1 µM and the CC50 at 4 days [3] was over 40 µM. The IC50 (hERG potassium channel; [4]) was over 10 µM.

Work on CN1C(=O)CN(c2cnc3c(cc(C(=O)NCc4ccc(Cl)cc4)c(=O)n3CC(=O)N3CC(C)(F)C3)n2)C1=O [Compound 14, N-[(4-chlorophenyl)methyl]-5-[2-(3-fluoro-3-methylazetidin-1-yl)-2-oxoethyl]-2-(3-methyl-2,4-dioxoimidazolidin-1-yl)-6-oxo-5,6-dihydropyrido[2,3-b]pyrazine-7-carboxamide] yielded an IC50 [1] of under 1 µM, an EC50 [2] of over 1 µM and a CC50 at 4 days [3] of over 40 µM. For the same molecule, the IC50 (hERG potassium channel; [4]) was over 10 µM.

Molecule CC1(F)CN(C(=O)Cn2c(=O)c(C(=O)NCc3ccc(Cl)cc3)cc3nc(N4CCNC4=O)cnc32)C1 [Compound 12, N-[(4-chlorophenyl)methyl]-5-[2-(3-fluoro-3-methylazetidin-1-yl)-2-oxoethyl]-6-oxo-2-(2-oxoimidazolidin-1-yl)-5,6-dihydropyrido[2,3-b]pyrazine-7-carboxamide] has an IC50 [1] of under 1 µM, an EC50 [2] of under 1 µM and a CC50 at 4 days [3] of over 40 µM. It also gave an IC50 (hERG potassium channel; [4]) of over 10 µM.

CC1(F)CN(C(=O)Cn2c(=O)c(C(=O)NCc3ccc(Cl)cc3)cc3nc(N4CCN(CC(=O)NC#N)C4=O)cnc32)C1 [Compound 26, N-[(4-chlorophenyl)methyl]-2-{3-[2-(cyanoamino)-2-oxoethyl]-2-oxoimidazolidin-1-yl}-5-[2-(3-fluoro-3-methylazetidin-1-yl)-2-oxoethyl]-6-oxo-5,6-dihydropyrido[2,3-b]pyrazine-7-carboxamide] gave an IC50 [1] of under 1 µM, an EC50 [2] of over 1 µM and a CC50 at 4 days [3] of over 40 µM. For the same molecule, the IC50 (hERG potassium channel; [4]) was over 10 µM.

CC1(F)CN(C(=O)Cn2c(=O)c(C(=O)NCc3ccc(Cl)cc3)cc3nc(N4CCOC4=O)cnc32)C1 [Compound 2, N-[(4-chlorophenyl)methyl]-5-[2-(3-fluoro-3-methylazetidin-1-yl)-2-oxoethyl]-6-oxo-2-(2-oxo-1,3-oxazolidin-3-yl)-5,6-dihydropyrido[2,3-b]pyrazine-7-carboxamide] gave an IC50 [1] of under 1 µM, an EC50 [2] of under 1 µM and a CC50 at 4 days [3] of under 40 µM. For the same molecule, the IC50 (hERG potassium channel; [4]) was under 10 µM.

CC1(F)CN(C(=O)Cn2c(=O)c(C(=O)NCc3ccc(Cl)cc3)cc3nc(N4CCN(CCNS(C)(=O)=O)C4=O)cnc32)C1 [Compound 16, N-[(4-chlorophenyl)methyl]-5-[2-(3-fluoro-3-methylazetidin-1-yl)-2-oxoethyl]-2-(3-{2-[(methanesulfonyl)amino]ethyl}-2-oxoimidazolidin-1-yl)-6-oxo-5,6-dihydropyrido[2,3-b]pyrazine-7-carboxamide] gave an IC50 [1] of under 1 µM, an EC50 [2] of over 1 µM and a CC50 at 4 days [3] of over 40 µM. It also gave an IC50 (hERG potassium channel; [4]) of over 10 µM.

CC1CCN(c2cnc3c(cc(C(=O)NCc4ccc(Cl)cc4)c(=O)n3CC(=O)N3CC(C)(F)C3)n2)C1=O (centres unmarked) [Compound 4, N-[(4-chlorophenyl)methyl]-5-[2-(3-fluoro-3-methylazetidin-1-yl)-2-oxoethyl]-2-(3-methyl-2-oxopyrrolidin-1-yl)-6-oxo-5,6-dihydropyrido[2,3-b]pyrazine-7-carboxamide] gave an IC50 [1] of under 1 µM, an EC50 [2] of under 1 µM and a CC50 at 4 days [3] of over 40 µM. For the same molecule, the IC50 (hERG potassium channel; [4]) was under 10 µM.
